Among the data in US6921759B2, “Aza- and polyaza-naphthalenyl carboxamides useful as HIV integrase inhibitors” (Merck & Co., Inc., priority 2000, dated 2005) are oral bioavailability values, retold here.

The nature of this data set: Oral bioavailability of jet-milled v. unmilled Na salt. In kind it is in vivo. The note with it: jet-milled crystals (mean particle size about 3 to 5 microns) compared with unmilled (about 20 to 25 microns); orally administered formulations. The source says: The Na salt has been jet-milled to provide crystals with a mean particle size of about 3 to 5 microns (v. about 20 to 25 microns for unmilled material) for use in orally administered formulations.

With `O=C(NCc1ccc(F)cc1)c1nc(N2CCCCS2(=O)=O)c2cccnc2c1[O-].[Na+]` [Na salt, Sodium salt of 5-(1,1-Dioxido-1,2-thiazinan-2-yl)-N-(4-fluorobenzyl)-8-hydroxy-1,6-naphthyridine-7-carboxamide], the oral bioavailability result is on record as “improved oral bioavailability over the unmilled salt”.
